Assay results from patent US8680275B2, “Fused heterocyclic compounds as orexin receptor modulators” (Janssen Pharmaceutica NV, priority 2009, dated 2014).

Legend:
[1] = molecular target: human orexin-2 receptor (Homo sapiens (Human), UniProt O43614); test: Human orexin 2 receptor radioligand binding ([3H]-EMPA competition); conditions: HEK293 cells stably expressing human orexin-2 receptor; [3H]-EMPA 5 nM final; read-out: OR-2 Ki
Method: (§1) The in vitro affinity of the compounds for the human orexin-1 and orexin-2 receptors was determined by competitive radioligand binding using [^3H]SB SB674042 (1-(5-(2-fluoro-phenyl)-2-methyl-thiazol-4-yl)-1-((S)-2-(5-phenyl-(1,3,4)oxadiazol-2-ylmethyl)-pyrrolidin-1-yl)methanone) (Langmead et al., British Journal of Pharmacology 2004, 141:340-346.) and [^3H]EMPA (N-ethyl-2[(6-methoxy-pyridin-3-yl)-(toluene-2-sulfonyl)-amino]-N-pyridin-3-ylmethyl acetamide) (Malherbe et al., British Journal of Pharmacology, 2009, 156(8), 1326-1341), respectively.
Human Orexin 2 Receptor Radioligand Binding Studies
HEK293 stably expressing human orexin-2 receptor (Genebank accession number NM_001526) were grown to confluency in DMEM/F12 (Gibco, Cat #11039), in DMEM, 10% FBS, 1× Pen/Strep, 1× NaPyruvate, 1×HEPES, 600 ug/ml G418 media on 150 cm^2 tissue culture plates, washed with 5 mM EDTA in PBS (HyClone Dulbecco's Phosphate Buffered Saline 1× with Calcium and Magnesium, Cat #SH30264.01, hereafter referred to simply as PBS) and scraped into 50 ml tubes. After centrifugation (2K xG, 10 min at 4° C.), the supernatant was aspirated and the pellets frozen and stored at −80° C. Cells were resuspended in PBS in the presence of 1 tablet of protease inhibitor cocktail (Roche, Cat. #11836145001) per 50 mL. […] Competition binding experiments in 96 well polypropylene plates were performed using [^3H]-EMPA (Moravek Corporation, specific activity=27 Ci/mmol), diluted to a […] concentration in PBS (5 nM final concentration). Compounds were solubilized in 100% DMSO (Acros Organics, Cat. #61042-1000) and tested over a range of 7 concentrations (from 0.1 nM to 10 μM). The final concentration of DMSO in the reactions is equal to or less than 0.1%. Total and nonspecific binding was determined in the absence and presence of 10 μM (N-[2-(3,4-dimethoxyphenyl)ethyl]-N-methylnaphthalene-1-carboxamide, CAS Registry #1089563-88-1). The total volume of each reaction is 200 μL (20 μL of diluted compounds, 80 μL of [^3H]-EMPA diluted in PBS and 100 μL of the cell suspension). Reactions were run for 60 min at room temperature and terminated by filtration through GF/C filter plates (PerkinElmer, Cat. #6005174) presoaked in 0.3% polyethylenimine using the cell harvester (Perkin Elmer Filtermate). The plates were washed 3 times by aspirating 30 ml PBS through the plates. Plates were dried in 55° C. oven for 60 min, scintillation fluid was added, and the radioactivity was counted on a Topcount (Packard).

[2] = molecular target: human orexin 1 receptor (Homo sapiens (Human), UniProt O43613); test: Human orexin 1 receptor radioligand binding ([3H]-SB674042 competition); conditions: CHO cells stably expressing human orexin 1 receptor; [3H]-SB674042 4 nM final; read-out: OR-1 Ki
human orexin 1 receptor, sequence (O43613 whole entry): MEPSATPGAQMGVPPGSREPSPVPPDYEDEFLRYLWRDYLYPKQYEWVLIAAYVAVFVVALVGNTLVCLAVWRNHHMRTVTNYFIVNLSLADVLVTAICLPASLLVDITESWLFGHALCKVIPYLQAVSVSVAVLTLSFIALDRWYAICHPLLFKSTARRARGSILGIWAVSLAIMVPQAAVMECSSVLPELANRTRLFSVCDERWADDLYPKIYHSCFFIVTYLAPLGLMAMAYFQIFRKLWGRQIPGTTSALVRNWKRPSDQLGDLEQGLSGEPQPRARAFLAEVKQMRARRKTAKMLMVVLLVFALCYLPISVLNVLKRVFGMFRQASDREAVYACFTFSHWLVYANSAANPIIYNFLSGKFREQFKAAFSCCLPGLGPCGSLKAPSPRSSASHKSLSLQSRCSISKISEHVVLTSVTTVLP
Method: as §1
Human Orexin 1 Receptor Radioligand Binding Studies
Chinese ovary cells (CHO) stably expressing human orexin 1 receptor (Genebank accession number NM_001526) were grown to confluency in DMEM/F12 (Gibco, Cat #11039), 10% FBS, 1× Pen/Strep, 600 μg/mL G418 media on 150 cm^2 tissue culture plates, washed with 5 mM EDTA in PBS (HyClone Dulbecco's Phoshpate Buffered Saline 1× with Calcium and Magnesium, Cat #SH30264.01, hereafter referred to simply as PBS) and scraped into 50 ml tubes. After centrifugation (2K xG, 10 min at 4° C.), the supernatant was aspirated and the pellets frozen and stored at −80° C. Cells were resuspended in PBS in the presence of 1 tablet of protease inhibitor cocktail (Roche, Cat. #11836145001) per 50 mL. […] Compounds were solubilized in 100% DMSO (Acros Organics, Cat. #61042-1000) and tested over a range of 7 concentrations (from 0.1 nM to 10 μM). The final concentration of DMSO in the reactions is equal to or less than 0.1%. Total and nonspecific binding was determined in the absence and presence of 10 μM (1-(6,8-difluoro-2-methylquinolin-4-yl)-3-[4-(dimethylamino)phenyl]urea, CAS Registry #288150-92-5). The total volume of each reaction is 200 μL (20 μL of diluted compounds, 80 μL of [^3H]-SB674042 diluted in PBS and 100 μL of the cell suspension). Reactions were run for 60 min at room temperature and terminated by filtration through GF/C filter plates (PerkinElmer, Cat. #6005174) presoaked in 0.3% polyethylenimine using the cell harvester (PerkinElmer Filtermate). The plates were washed 3 times by aspirating 30 ml PBS through the plates. Plates were dried in 55° C. oven for 60 min, scintillation fluid was added, and the radioactivity was counted on a Topcount (Packard).

human orexin-2 receptor, sequence (O43614 whole entry): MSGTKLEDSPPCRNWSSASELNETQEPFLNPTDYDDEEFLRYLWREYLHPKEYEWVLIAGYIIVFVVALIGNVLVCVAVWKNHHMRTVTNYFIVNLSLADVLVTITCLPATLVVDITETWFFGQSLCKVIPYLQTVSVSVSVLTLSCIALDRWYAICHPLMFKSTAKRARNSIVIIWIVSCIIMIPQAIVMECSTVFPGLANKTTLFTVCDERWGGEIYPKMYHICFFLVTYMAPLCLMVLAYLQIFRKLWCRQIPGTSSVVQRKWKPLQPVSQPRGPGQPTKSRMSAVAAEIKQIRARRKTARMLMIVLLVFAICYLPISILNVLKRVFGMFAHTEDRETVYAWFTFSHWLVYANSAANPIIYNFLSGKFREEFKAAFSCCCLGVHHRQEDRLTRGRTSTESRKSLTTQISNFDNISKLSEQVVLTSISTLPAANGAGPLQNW

Ki [1] | Ki [2] | Compound
5 nM | 11 nM | CN(C)c1nc(N2C[C@@H]3CCN(C(=O)c4ccccc4-n4nccn4)C[C@@H]32)cc(C(F)(F)F)n1 [Example 36, (1R,6S)-[8-(2-Dimethylamino-6-trifluoromethyl-pyrimidin-4-yl)-3,8-diaza-bicyclo[4.2.0]oct-3-yl]-(2-[1,2,3]triazol-2-yl-phenyl)-methanone]
10 nM | 19 nM | CN(C)c1nc(N2C[C@@H]3CCN(C(=O)c4c(F)cccc4-n4nccn4)C[C@@H]32)cc(C(F)(F)F)n1 [Example 37, (1R,6S)-[8-(2-Dimethylamino-6-trifluoromethyl-pyrimidin-4-yl)-3,8-diaza-bicyclo[4.2.0]oct-3-yl]-(2-fluoro-6-[1,2,3]triazol-2-yl-phenyl)-methanone]
16 nM | 77 nM | CN(C)c1nc(N2C[C@@H]3CCN(C(=O)c4ccc(F)cc4-n4nccn4)C[C@@H]32)cc(C(F)(F)F)n1 [Example 38, (1R,6S)-[8-(2-Dimethylamino-6-trifluoromethyl-pyrimidin-4-yl)-3,8-diaza-bicyclo[4.2.0]oct-3-yl]-(4-fluoro-2-[1,2,3]triazol-2-yl-phenyl)-methanone]
20 nM | 32 nM | O=C(c1ccccc1-n1nccn1)N1CC[C@H]2CN(c3cnc4ccccc4n3)[C@H]2C1 [Example 39, (1R,6S)-(8-Quinoxalin-2-yl-3,8-diaza-bicyclo[4.2.0]oct-3-yl)-(2-[1,2,3]triazol-2-yl-phenyl)methanone]
91 nM | 1210 nM | Cc1cc(N2C[C@@H]3CCN(C(=O)c4cc(F)ccc4-n4nccn4)C[C@@H]32)nc(N(C)C)n1 [Example 40, (1R,6S)-[8-(2-Dimethylamino-6-methyl-pyrimidin-4-yl)-3,8-diaza-bicyclo[4.2.0]oct-3-yl]-(5-fluoro-2-[1,2,3]triazol-2-yl-phenyl)-methanone]
90 nM | 475 nM | Cc1cc(N2C[C@@H]3CCN(C(=O)c4ccccc4-n4nccn4)C[C@@H]32)nc(N(C)C)n1 [Example 43, (1R,6S)-[8-(2-Dimethylamino-6-methyl-pyrimidin-4-yl)-3,8-diaza-bicyclo[4.2.0]oct-3-yl]-(2-[1,2,3]triazol-2-yl-phenyl)-methanone]
73 nM | 480 nM | Cc1cc(N2C[C@@H]3CCN(C(=O)c4c(F)cccc4-n4nccn4)C[C@@H]32)nc(N(C)C)n1 [Example 44, (1R,6S)-[8-(2-Dimethylamino-6-methyl-pyrimidin-4-yl)-3,8-diaza-bicyclo[4.2.0]oct-3-yl]-(2-fluoro-6-[1,2,3]triazol-2-yl-phenyl)-methanone]
15 nM | 47 nM | CN(C)c1nc(N2C[C@@H]3CCN(C(=O)c4cc(F)ccc4-n4nccn4)C[C@@H]32)cc(C(F)(F)F)n1 [Example 46, (1R,6S)-[8-(2-Dimethylamino-6-trifluoromethyl-pyrimidin-4-yl)-3,8-diaza-bicyclo[4.2.0]oct-3-yl]-(5-fluoro-2-[1,2,3]triazol-2-yl-phenyl)-methanone]
132 nM | 206 nM | O=C(c1ccccc1-c1ccccc1)N1CC2CN(c3nccc(-c4ccccc4)n3)C2C1 (stereo not drawn) [Example 47, 3-(Biphenyl-2-ylcarbonyl)-6-(4-phenylpyrimidin-2-yl)-3,6-diazabicyclo[3.2.0]heptane]
179 nM | 258 nM | O=C(c1ccccc1-c1ccccc1)N1CC2CN(c3cnc4ccccc4n3)C2C1 (stereo not drawn) [Example 48, 2-[3-(Biphenyl-2-ylcarbonyl)-3,6-diazabicyclo[3.2.0]hept-6-yl]quinoxaline]
77 nM | 114 nM | O=C(c1ccccc1-c1cccs1)N1CC2CN(c3cnc4ccccc4n3)C2C1 (stereo not drawn) [Example 49, 2-{3-[(2-Thiophen-2-ylphenyl)carbonyl]-3,6-diazabicyclo[3.2.0]hept-6-yl}quinoxaline]
94 nM | 39 nM | O=C(c1ccccc1-c1cccs1)N1CC2CN(c3nccc(-c4ccccc4)n3)C2C1 (stereo not drawn) [Example 50, 6-(4-Phenylpyrimidin-2-yl)-3-[(2-thiophen-2-ylphenyl)carbonyl]-3,6-diazabicyclo[3.2.0]heptane]
501 nM | 432 nM | Cc1nc(C(=O)N2CC3CN(c4cnc5ccccc5n4)C3C2)c(-c2ccccc2F)s1 (stereo not drawn) [Example 51, 2-(3-{[5-(2-Fluorophenyl)-2-methyl-1,3-thiazol-4-yl]carbonyl}-3,6-diazabicyclo[3.2.0]hept-6-yl)quinoxaline]
137 nM | 104 nM | Cc1nc(C(=O)N2CC3CN(c4nccc(-c5ccccc5)n4)C3C2)c(-c2ccccc2F)s1 (stereo not drawn) [Example 52, 3-{[5-(2-Fluorophenyl)-2-methyl-1,3-thiazol-4-yl]carbonyl}-6-(4-phenylpyrimidin-2-yl)-3,6-diazabicyclo[3.2.0]heptane]
1810 nM | 3700 nM | COc1ccccc1C(=O)N1CC2CN(c3nccc(-c4ccccc4)n3)C2C1 (stereo not drawn) [Example 53, 3-[(2-Methoxyphenyl)carbonyl]-6-(4-phenylpyrimidin-2-yl)-3,6-diazabicyclo[3.2.0]heptane]
2420 nM | 3450 nM | COc1ccccc1C(=O)N1CC2CN(c3cnc4ccccc4n3)C2C1 (stereo not drawn) [Example 54, 2-{3-[(2-Methoxyphenyl)carbonyl]-3,6-diazabicyclo[3.2.0]hept-6-yl}quinoxaline]
29 nM | 3570 nM | Cc1cc(C)nc(N2CC3CN(C(=O)c4ccccc4-c4cccs4)CC32)n1 (stereo not drawn) [Example 57, 6-(4,6-Dimethylpyrimidin-2-yl)-3-[(2-thiophen-2-ylphenyl)carbonyl]-3,6-diazabicyclo[3.2.0]heptane]
1050 nM | 9650 nM | Cc1cc(C)nc(N2CC3CN(C(=O)c4ccccc4Br)CC32)n1 (stereo not drawn) [Example 58, 3-[(2-Bromophenyl)carbonyl]-6-(4,6-dimethylpyrimidin-2-yl)-3,6-diazabicyclo[3.2.0]heptane]
9320 nM | 10000 nM | Cc1ccnc(N2CC3CN(C(=O)c4ccccc4Br)CC32)n1 (stereo not drawn) [Example 59, (2-Bromo-phenyl)-[6-(4-methyl-pyrimidin-2-yl)-3,6-diaza-bicyclo[3.2.0]hept-3-yl]-methanone]
188 nM | 10000 nM | Cc1ccnc(N2CC3CN(C(=O)c4ccccc4-c4cccs4)CC32)n1 (stereo not drawn) [Example 60, 6-(4-Methylpyrimidin-2-yl)-3-[(2-thiophen-2-ylphenyl)carbonyl]-3,6-diazabicyclo[3.2.0]heptane]
980 nM | 10000 nM | Cc1ccnc(N2CC3CN(C(=O)c4ccccc4-c4ccccc4)CC32)n1 (stereo not drawn) [Example 61, 3-(Biphenyl-2-ylcarbonyl)-6-(4-methylpyrimidin-2-yl)-3,6-diazabicyclo[3.2.0]heptane]
